Results from PubChem BioAssay (NCI).
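Where inhibition never reached the appropriate level, the endpoint shown equals the highest concentration tested. Otherwise, values were interpolated linearly from a five-concentration, 48-hour dose response in 96-well plates. At the GI50, growth is halved. TGI: concentration producing complete growth inhibition.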

Key:
Assay in all cases: DTP human tumour cell line panel, 48 h
PC-3 prostate = system: PC-3 prostate
786-0 renal = system: 786-0 renal
TK-10 renal = system: TK-10 renal
HOP-62 NSCLC = system: HOP-62 NSCLC
HL-60(TB) leukemia = system: HL-60(TB) leukemia
MDA-MB-231 breast = system: MDA-MB-231 breast
NCI-H23 lung = system: NCI-H23 lung
SF-268 CNS = system: SF-268 CNS
SK-MEL-5 melanoma = system: SK-MEL-5 melanoma
CAKI-1 renal = system: CAKI-1 renal
MDA-MB-468 breast = system: MDA-MB-468 breast
SK-MEL-28 melanoma = system: SK-MEL-28 melanoma
LOX IMVI melanoma = system: LOX IMVI melanoma
K-562 leukemia = system: K-562 leukemia
A498 renal = system: A498 renal
RPMI-8226 leukemia = system: RPMI-8226 leukemia
SF-295 CNS = system: SF-295 CNS
OVCAR-5 ovarian = system: OVCAR-5 ovarian
SK-MEL-2 melanoma = system: SK-MEL-2 melanoma
RXF 393 renal = system: RXF 393 renal
NCI-H226 lung = system: NCI-H226 lung
KM12 colon = system: KM12 colon
SNB-19 CNS = system: SNB-19 CNS
HT29 colon = system: HT29 colon
DU-145 prostate = system: DU-145 prostate
MOLT-4 leukemia = system: MOLT-4 leukemia
HCT-116 colon = system: HCT-116 colon
U251 CNS = system: U251 CNS
MDA-MB-435 = system: MDA-MB-435
OVCAR-8 ovarian = system: OVCAR-8 ovarian
ACHN renal = system: ACHN renal
SNB-75 CNS = system: SNB-75 CNS
SF-539 CNS = system: SF-539 CNS
SR leukemia = system: SR leukemia
CCRF-CEM leukemia = system: CCRF-CEM leukemia
SK-OV-3 ovarian = system: SK-OV-3 ovarian
NCI-H460 lung = system: NCI-H460 lung
HCT-15 colon = system: HCT-15 colon
HCC-2998 colon = system: HCC-2998 colon
HS 578T breast = system: HS 578T breast
OVCAR-3 ovarian = system: OVCAR-3 ovarian
OVCAR-4 ovarian = system: OVCAR-4 ovarian
M14 melanoma = system: M14 melanoma
UACC-62 melanoma = system: UACC-62 melanoma
UO-31 renal = system: UO-31 renal
SW-620 colon = system: SW-620 colon
T-47D breast = system: T-47D breast
COLO 205 colon = system: COLO 205 colon
BT-549 breast = system: BT-549 breast
SN12C renal = system: SN12C renal
IGROV1 ovarian = system: IGROV1 ovarian
A549 NSCLC = system: A549 NSCLC
MCF7 breast = system: MCF7 breast
MALME-3M melanoma = system: MALME-3M melanoma
EKVX NSCLC = system: EKVX NSCLC

For `CC1=C(C(=O)OCc2ccccc2)C(c2cccc3ccccc23)n2c(nc3ccccc32)N1` (stereo not given), the GI50 (PC-3 prostate) was 3.33 µM, the TGI (PC-3 prostate) was > 100 µM and the GI50 (786-0 renal) was 4.68 µM. For the same molecule, the TGI (786-0 renal) was > 100 µM, the GI50 (TK-10 renal) was > 100 µM and the TGI (TK-10 renal) was > 100 µM. The GI50 (HOP-62 NSCLC) was 4.15 µM, the TGI (HOP-62 NSCLC) was > 100 µM and the GI50 (HL-60(TB) leukemia) was 2.14 µM. For the same molecule, the TGI (HL-60(TB) leukemia) was > 100 µM, the GI50 (MDA-MB-231 breast) was > 100 µM and the TGI (MDA-MB-231 breast) was > 100 µM. The GI50 (NCI-H23 lung) was 32.6 µM, the TGI (NCI-H23 lung) was > 100 µM and the GI50 (SF-268 CNS) was 5.44 µM. For the same molecule, the TGI (SF-268 CNS) was > 100 µM, the GI50 (SK-MEL-5 melanoma) was 3.37 µM and the TGI (SK-MEL-5 melanoma) was 21.7 µM. The GI50 (CAKI-1 renal) was 2.4 µM, the TGI (CAKI-1 renal) was > 100 µM and the GI50 (MDA-MB-468 breast) was 1.93 µM. For the same molecule, the TGI (MDA-MB-468 breast) was 7.26 µM, the GI50 (SK-MEL-28 melanoma) was > 100 µM and the TGI (SK-MEL-28 melanoma) was > 100 µM. The GI50 (LOX IMVI melanoma) was 5.7 µM, the TGI (LOX IMVI melanoma) was > 100 µM and the GI50 (K-562 leukemia) was 1.66 µM. The TGI (K-562 leukemia) was > 100 µM, the GI50 (A498 renal) was > 100 µM and the TGI (A498 renal) was > 100 µM. For the same molecule, the GI50 (RPMI-8226 leukemia) was 3.46 µM, the TGI (RPMI-8226 leukemia) was > 100 µM and the GI50 (SF-295 CNS) was 3.04 µM. For the same molecule, the TGI (SF-295 CNS) was > 100 µM, the GI50 (OVCAR-5 ovarian) was > 100 µM and the TGI (OVCAR-5 ovarian) was > 100 µM. For the same molecule, the GI50 (SK-MEL-2 melanoma) was 2.5 µM, the TGI (SK-MEL-2 melanoma) was 7.66 µM and the GI50 (RXF 393 renal) was 1.51 µM. The TGI (RXF 393 renal) was 6.9 µM, the GI50 (NCI-H226 lung) was 3.26 µM and the TGI (NCI-H226 lung) was > 100 µM. The GI50 (KM12 colon) was 3.21 µM, the TGI (KM12 colon) was > 100 µM and the GI50 (SNB-19 CNS) was 5.8 µM. The TGI (SNB-19 CNS) was > 100 µM, the GI50 (HT29 colon) was 2.53 µM and the TGI (HT29 colon) was 8.29 µM. For the same molecule, the GI50 (DU-145 prostate) was 4.21 µM, the TGI (DU-145 prostate) was > 100 µM and the GI50 (MOLT-4 leukemia) was 2.71 µM. For the same molecule, the TGI (MOLT-4 leukemia) was > 100 µM, the GI50 (HCT-116 colon) was 3.19 µM and the TGI (HCT-116 colon) was > 100 µM. For the same molecule, the GI50 (U251 CNS) was 3.49 µM, the TGI (U251 CNS) was > 100 µM and the GI50 (MDA-MB-435) was 1.86 µM. For the same molecule, the TGI (MDA-MB-435) was 4.68 µM, the GI50 (OVCAR-8 ovarian) was 4.94 µM and the TGI (OVCAR-8 ovarian) was > 100 µM. The GI50 (ACHN renal) was 4.66 µM, the TGI (ACHN renal) was > 100 µM and the GI50 (SNB-75 CNS) was 1.39 µM. For the same molecule, the TGI (SNB-75 CNS) was 4.91 µM, the GI50 (SF-539 CNS) was 3.22 µM and the TGI (SF-539 CNS) was > 100 µM. The GI50 (SR leukemia) was 2.4 µM, the TGI (SR leukemia) was > 100 µM and the GI50 (CCRF-CEM leukemia) was 2.69 µM. The TGI (CCRF-CEM leukemia) was > 100 µM, the GI50 (SK-OV-3 ovarian) was 3.97 µM and the TGI (SK-OV-3 ovarian) was > 100 µM. The GI50 (NCI-H460 lung) was 3.61 µM, the TGI (NCI-H460 lung) was > 100 µM and the GI50 (HCT-15 colon) was 3.61 µM. For the same molecule, the TGI (HCT-15 colon) was > 100 µM, the GI50 (HCC-2998 colon) was 7.58 µM and the TGI (HCC-2998 colon) was > 100 µM. For the same molecule, the GI50 (HS 578T breast) was 2.69 µM, the TGI (HS 578T breast) was 8.82 µM and the GI50 (OVCAR-3 ovarian) was 2.65 µM. For the same molecule, the TGI (OVCAR-3 ovarian) was 7.58 µM, the GI50 (OVCAR-4 ovarian) was 6.36 µM and the TGI (OVCAR-4 ovarian) was > 100 µM. For the same molecule, the GI50 (M14 melanoma) was 3.78 µM, the TGI (M14 melanoma) was > 100 µM and the GI50 (UACC-62 melanoma) was 3.99 µM. For the same molecule, the TGI (UACC-62 melanoma) was > 100 µM, the GI50 (UO-31 renal) was 4.64 µM and the TGI (UO-31 renal) was > 100 µM. The GI50 (SW-620 colon) was 3.62 µM, the TGI (SW-620 colon) was > 100 µM and the GI50 (T-47D breast) was 4.22 µM. For the same molecule, the TGI (T-47D breast) was > 100 µM, the GI50 (COLO 205 colon) was 3.22 µM and the TGI (COLO 205 colon) was > 100 µM. The GI50 (BT-549 breast) was 4.67 µM, the TGI (BT-549 breast) was > 100 µM and the GI50 (SN12C renal) was 5.08 µM. For the same molecule, the TGI (SN12C renal) was > 100 µM, the GI50 (IGROV1 ovarian) was 5.49 µM and the TGI (IGROV1 ovarian) was > 100 µM. For the same molecule, the GI50 (A549 NSCLC) was 5.21 µM, the TGI (A549 NSCLC) was > 100 µM and the GI50 (MCF7 breast) was 2.71 µM. For the same molecule, the TGI (MCF7 breast) was > 100 µM, the GI50 (MALME-3M melanoma) was 3.84 µM and the TGI (MALME-3M melanoma) was > 100 µM. For the same molecule, the GI50 (EKVX NSCLC) was 4.8 µM and the TGI (EKVX NSCLC) was > 100 µM.
